From patent publication US20150368296A1, “Method for preventing or treating heart diseases by using a composition containing an isolated peptide” (Tunghai University, priority 2014, published 2015)

Tests used:
Format in all cases: in vivo
FGF-2 = assay: Western blot of FGF-2 in heart tissue of high-fat diet mice; conditions: high-fat diet C57BL/6 mice, 5, 10 and 25 mg/kg/day intraperitoneally (groups 3 to 5) vs group 2 (high-fat diet, saline); relative to tubulin
Protocol: (§1) The male C57BL/6 mice at the age of 6 weeks were divided into 5 groups for 8 mice in each group. […]
(§2) Protein concentration of the extract was determined by Lowry's protein assay method. […]
(§3) The protein extraction of the mice heart tissues from the each group in example 2 were processed by the western blot method in example 3 to observe the expressions of the related proteins of cardiac fibrosis pathway including: FGF-2, ERK-1, UPA, MMP-2 and MMP-9. The results were shown at FIGS. 10 and 11, wherein the tubulin was used for an internal control in FIG. 10 and the expression levels of FGF-2, ERK-1, UPA, MMP-2 and MMP-9 in the mice heart tissues from the each group was calculated basing on the expression level of tubulin in each figures of FIG. 11.

p38α protein = assay: Western blot of p38α protein in heart tissue of high-fat diet mice; conditions: high-fat diet C57BL/6 mice, 5, 10 and 25 mg/kg/day intraperitoneally (groups 3 to 5) vs group 2 (high-fat diet, saline); relative to tubulin
Protocol: (§4) The male C57BL/6 mice at the age of 6 weeks were divided into 5 groups for 8 mice in each group. The each group of mice were feed at 24±2° C. of temperature, humidity of 55±10% and 12/12 light cycle for 8 weeks, wherein the group 1 was control group on a normal diet (PMI Nutrition International, Brentwood, Mo., USA) and injected 0.9% saline intraperitoneally; the group 2 was fed high-fat diet to induce the mice into heart hypertrophy model and injected 0.9% saline intraperitoneally; the group 3 was fed high-fat diet and SEQ ID NO.:1 peptide was injected intraperitoneally with the dose of 5 mg/kg/day; the group 4 was fed high-fat diet and SEQ ID NO.:1 peptide was injected intraperitoneally with the dose of 10 mg/kg/day; the group 5 was fed high-fat diet and SEQ ID NO.:1 peptide was injected intraperitoneally with the dose of 25 mg/kg/day. […]
as §2
(§5) The protein extraction of the mice heart tissues from the each group in example 2 were processed by the western blot method in example 3 to observe the expressions of p38α protein and JNK. The results were shown at FIGS. 8 and 9, wherein the tubulin was used for an internal control in FIG. 8 and the expression levels of p38α protein and JNK were calculated basing on the expression level of tubulin in each figure of FIG. 9.

ERK-5 = assay: Western blot of ERK-5 in heart tissue of high-fat diet mice; conditions: high-fat diet C57BL/6 mice, 5, 10 and 25 mg/kg/day intraperitoneally (groups 3 to 5) vs group 2 (high-fat diet, saline); relative to tubulin
Protocol: as §1, §2
(§6) The protein extraction of the mice heart tissues from the each group in example 2 were processed by the western blot method in example 3 to observe the expressions of the related signal transduction proteins of heart hypertrophy including: STAT-3, IL-6, MEK-5 and ERK-5. The results were shown at FIGS. 6 and 7, wherein the tubulin was used for an internal control in FIG. 6 and the expression levels of the related signal transduction proteins of heart hypertrophy in the mice heart tissues from each group was calculated basing on the expression level of tubulin in FIG. 7.

JNK = assay: Western blot of JNK in heart tissue of high-fat diet mice; conditions: high-fat diet C57BL/6 mice, 5, 10 and 25 mg/kg/day intraperitoneally (groups 3 to 5) vs group 2 (high-fat diet, saline); relative to tubulin
Protocol: as §4, §2, §5

STAT-3 = assay: Western blot of STAT-3 in heart tissue of high-fat diet mice; conditions: high-fat diet C57BL/6 mice, 5, 10 and 25 mg/kg/day intraperitoneally (groups 3 to 5) vs group 2 (high-fat diet, saline); relative to tubulin
Protocol: as §1, §2, §6

MEK-5 = assay: Western blot of MEK-5 in heart tissue of high-fat diet mice; conditions: high-fat diet C57BL/6 mice, 5, 10 and 25 mg/kg/day intraperitoneally (groups 3 to 5) vs group 2 (high-fat diet, saline); relative to tubulin
Protocol: as §1, §2, §6

MMP-2 = assay: Western blot of MMP-2 in heart tissue of high-fat diet mice; conditions: high-fat diet C57BL/6 mice, 5, 10 and 25 mg/kg/day intraperitoneally (groups 3 to 5) vs group 2 (high-fat diet, saline); relative to tubulin
Protocol: as §1, §2, §3

Bcl-2 protein = assay: Western blot of Bcl-2 in heart tissue of high-fat diet mice; conditions: high-fat diet C57BL/6 mice, 5, 10 and 25 mg/kg/day intraperitoneally (groups 3 to 5) vs group 2 (high-fat diet, saline); relative to tubulin
Protocol: as §1, §2
as §5, with “related apoptosis regulatory proteins in the mice heart tissues from the each group.” for “p38α protein and JNK.”, “2” for “8”, “3,” for “9,”, “related apoptosis regulatory proteins” for “p38α protein and JNK”, “3.” for “9.”

cytochrome C = assay: Western blot of cytochrome C in heart tissue of high-fat diet mice; conditions: high-fat diet C57BL/6 mice, 5, 10 and 25 mg/kg/day intraperitoneally (groups 3 to 5) vs group 2 (high-fat diet, saline); relative to tubulin
Protocol: as §1, §2
as §5, with “related apoptosis regulatory proteins in the mice heart tissues from the each group.” for “p38α protein and JNK.”, “2” for “8”, “3,” for “9,”, “related apoptosis regulatory proteins” for “p38α protein and JNK”, “3.” for “9.”

ANP = assay: Western blot of ANP in heart tissue of high-fat diet mice; conditions: high-fat diet C57BL/6 mice, 5, 10 and 25 mg/kg/day intraperitoneally (groups 3 to 5) vs group 2 (high-fat diet, saline); relative to tubulin
Protocol: as §1, §2
(§7) The protein extraction of the mice heart tissues from the each group in example 2 were processed by the western blot method in example 3 to observe the expressions of the indicator of heart hypertrophy and heart failure. The results were shown at FIGS. 12 and 13, wherein the tubulin was used for an internal control in FIG. 12 and the expression levels of the ANP and BNP in the mice heart tissues from the each group was calculated basing on the expression level of tubulin in each figures of FIG. 13.

UPA = assay: Western blot of UPA in heart tissue of high-fat diet mice; conditions: high-fat diet C57BL/6 mice, 5, 10 and 25 mg/kg/day intraperitoneally (groups 3 to 5) vs group 2 (high-fat diet, saline); relative to tubulin
Protocol: as §1, §2, §3

[1] = test system: nuclear factor of activated T-cells C3 (NFTA-C3); assay: Western blot of NFTA-C3 in heart tissue of high-fat diet mice; conditions: high-fat diet C57BL/6 mice, 5, 10 and 25 mg/kg/day intraperitoneally (groups 3 to 5) vs group 2 (high-fat diet, saline); relative to tubulin
Protocol: as §1, §2
(§8) The protein extraction of the mice heart tissues from the each group in example 2 were processed by the western blot method in example 3 to observe the expressions of nuclear factor of activated T-cells C3 (NFTA-C3) and calcineurin in the mice heart tissues from the each group. The results were shown at FIGS. 4 and 5, wherein the tubulin was used for an internal control in FIG. 4 and the expression levels of NFTA-C3 and calcineurin were calculated basing on the expression level of tubulin in each figure of FIG. 5.

myocardial cells = assay: H&E stained section of heart tissues of high-fat diet mice; conditions: 15 and 25 mg/kg/day intraperitoneally (groups 3 and 4) vs group 2 (high-fat diet, saline)
Protocol: The male C57BL/6 mice at the age of 6 weeks were divided into 5 groups for 8 mice in each group. The each group of mice were feed at 24±2° C. of temperature, humidity of 55±10% and 12/12 light cycle for 8 weeks, wherein the group 1 was control group on a normal diet (PMI Nutrition International, Brentwood, Mo., USA) and injected 0.9% saline intraperitoneally; the group 2 was fed high-fat diet to induce the mice into heart hypertrophy model and injected 0.9% saline intraperitoneally; the group 3 was fed high-fat diet and SEQ ID NO.:1 peptide was injected intraperitoneally with the dose of 5 mg/kg/day; the group 4 was fed high-fat diet and SEQ ID NO.:1 peptide was injected intraperitoneally with the dose of 10 mg/kg/day; the group 5 was fed high-fat diet and SEQ ID NO.:1 peptide was injected intraperitoneally with the dose of 25 mg/kg/day. The injection period of each group of mice was between the third week to the sixth week of feeding period. The high-fat diet contained 60% of energy as fat.
The feeding method was the same with example 1. Mice were divided into 4 groups for feeding at different conditions. The intraperitoneal injection was performed between the third week and the sixth week of the feeding period. […]

MMP-9 = assay: Western blot of MMP-9 in heart tissue of high-fat diet mice; conditions: high-fat diet C57BL/6 mice, 5, 10 and 25 mg/kg/day intraperitoneally (groups 3 to 5) vs group 2 (high-fat diet, saline); relative to tubulin
Protocol: as §1, §2, §3

IL-6 = assay: Western blot of IL-6 in heart tissue of high-fat diet mice; conditions: high-fat diet C57BL/6 mice, 5, 10 and 25 mg/kg/day intraperitoneally (groups 3 to 5) vs group 2 (high-fat diet, saline); relative to tubulin
Protocol: as §1, §2, §6

ERK-1 = assay: Western blot of ERK-1 in heart tissue of high-fat diet mice; conditions: high-fat diet C57BL/6 mice, 5, 10 and 25 mg/kg/day intraperitoneally (groups 3 to 5) vs group 2 (high-fat diet, saline); relative to tubulin
Protocol: as §1, §2, §3

BNP = assay: Western blot of BNP in heart tissue of high-fat diet mice; conditions: high-fat diet C57BL/6 mice, 5, 10 and 25 mg/kg/day intraperitoneally (groups 3 to 5) vs group 2 (high-fat diet, saline); relative to tubulin
Protocol: as §1, §2, §7

caspase-3 = assay: Western blot of activated caspase-3 in heart tissue of high-fat diet mice; conditions: high-fat diet C57BL/6 mice, 5, 10 and 25 mg/kg/day intraperitoneally (groups 3 to 5) vs group 2 (high-fat diet, saline); relative to tubulin
Protocol: as §1, §2
as §5, with “related apoptosis regulatory proteins in the mice heart tissues from the each group.” for “p38α protein and JNK.”, “2” for “8”, “3,” for “9,”, “related apoptosis regulatory proteins” for “p38α protein and JNK”, “3.” for “9.”

calcineurin = assay: Western blot of calcineurin in heart tissue of high-fat diet mice; conditions: high-fat diet C57BL/6 mice, 5, 10 and 25 mg/kg/day intraperitoneally (groups 3 to 5) vs group 2 (high-fat diet, saline); relative to tubulin
Protocol: as §1, §2, §8

SEQ ID NO.:1 peptide: isolated peptide which amino acid sequence is SEQ ID NO.: 1; extracted from organisms, separated by hydrolysis or chemical synthesis (VHVV)
expression level of FGF-2 (related protein of cardiac fibrosis pathway) in heart tissues (FGF-2): obviously lower | expression level of p38α protein in the heart cells (p38α protein): significantly lower | expression level of ERK-5 in the heart tissues (ERK-5): obviously lower | expression level of JNK in the heart cells (JNK): significantly lower | expression level of STAT-3 in the heart tissues (STAT-3): obviously lower | expression level of MEK-5 in the heart tissues (MEK-5): obviously lower | expression level of MMP-2 (related protein of cardiac fibrosis pathway) in heart tissues (MMP-2): obviously lower | expression level of Bcl-2 in the heart cell (Bcl-2 protein): obviously increased | expression level of cytochrome C in the heart cell (cytochrome C): obviously decreased | expression level of ANP in the heart tissues (ANP): obviously decreased | expression level of UPA (related protein of cardiac fibrosis pathway) in heart tissues (UPA): obviously lower | expression level of NFTA-C3 in the heart cells [1]: obviously decreased | arrangement of myocardial cells in H&E stained heart sections (myocardial cells): more orderly and closely and has normal structure of heart muscles | expression level of MMP-9 (related protein of cardiac fibrosis pathway) in heart tissues (MMP-9): obviously lower | expression level of IL-6 in the heart tissues (IL-6): obviously lower | expression level of ERK-1 (related protein of cardiac fibrosis pathway) in heart tissues (ERK-1): obviously lower | expression level of BNP in the heart tissues (BNP): obviously decreased | expression level of activated caspase-3 in the heart cell (caspase-3): obviously decreased | expression level of calcineurin in the heart cells (calcineurin): obviously decreased
